Like-named read-outs stand apart in the source and are kept apart here.
Assays:
[1] = target: Recombinant human JAK2 catalytic domain (Homo sapiens (Human), UniProt O60674); test: JAK2 kinase assay (Z'-LYTE, Tyr 6 Peptide); type: biochemical
Protocol: (§1) JAK1/2/3 kinase assay are performed in vitro using Kit-Tyr 6 Peptide (Invitrogen, Cat. No. PV4122). TYK2 kinase assay are performed in vitro using Z′-LYTE™ Kinase Assay Kit-Tyr 3 Peptide (Invitrogen, Cat. No. PV3192). […] All compounds are initially tested at 8 different concentrations (1 μM down to 0.0003 μM) using a 1:3 serial dilution scheme.

[2] = target: Recombinant human JAK3 catalytic domain (Homo sapiens (Human), UniProt P52333); test: JAK3 kinase assay (Z'-LYTE, Tyr 6 Peptide); type: biochemical
Chain of Recombinant human JAK3 catalytic domain (P52333 822-1111): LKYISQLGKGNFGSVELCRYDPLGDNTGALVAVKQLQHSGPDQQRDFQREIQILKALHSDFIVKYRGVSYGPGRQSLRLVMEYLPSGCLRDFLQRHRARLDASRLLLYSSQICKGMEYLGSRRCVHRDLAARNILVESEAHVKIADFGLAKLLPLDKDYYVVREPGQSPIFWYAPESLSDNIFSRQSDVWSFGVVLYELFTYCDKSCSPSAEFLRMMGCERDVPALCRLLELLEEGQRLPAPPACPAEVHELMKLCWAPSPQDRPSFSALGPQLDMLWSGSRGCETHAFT
Protocol: as §1

[3] = read-out: IC50 in JAK2 kinase assay
[4] = read-out: IC50 in JAK3 kinase assay

Chain of Recombinant human JAK2 catalytic domain (O60674 849-1124): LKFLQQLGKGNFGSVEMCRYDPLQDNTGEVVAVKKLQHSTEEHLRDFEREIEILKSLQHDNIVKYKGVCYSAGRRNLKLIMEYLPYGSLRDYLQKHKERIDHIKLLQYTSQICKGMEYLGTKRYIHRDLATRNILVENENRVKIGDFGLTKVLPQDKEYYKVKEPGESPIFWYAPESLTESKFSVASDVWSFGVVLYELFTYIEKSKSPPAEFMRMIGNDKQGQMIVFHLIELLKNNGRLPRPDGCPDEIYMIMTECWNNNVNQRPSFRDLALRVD

Row | IC50 [1, 3] [nM] | IC50 [2, 4] [nM] | IC50 ([1]; read-out: JAK2 (enzyme, IC50)) [nM] | IC50 ([2]; read-out: JAK3 (enzyme, IC50)) [nM] | SMILES
1 | 100 to 1000 | – | – | – | CCCC(=O)N(C)[C@@H]1CCN(c2ncnc3[nH]ccc23)C1 [Compound 3]
2 | 100 to 1000 | – | – | – | CN(C(=O)C1(C#N)CC1)[C@@H]1CCN(c2ncnc3[nH]ccc23)C1 [Compound 6]
3 | 100 to 1000 | – | – | – | CN([C@@H]1CCN(c2ncnc3[nH]ccc23)C1)S(=O)(=O)c1cccc(C#N)c1 [Compound 10]
4 | 100 to 1000 | – | – | – | CN([C@@H]1CCN(c2ncnc3[nH]ccc23)C1)S(=O)(=O)c1cccc([N+](=O)[O-])c1 [Compound 12]
5 | 100 to 1000 | 100 to 1000 | – | – | CN(C(=O)Nc1ccc(C#N)cc1)[C@@H]1CCN(c2ncnc3[nH]ccc23)C1 [Compound 17]
6 | – | 100 to 1000 | – | – | CN(C(=O)CC(F)(F)F)[C@@H]1CCN(c2ncnc3[nH]ccc23)C1 [Compound 25]
7 | 1 to 100 | 100 to 1000 | – | – | C=CCN(C1CCCC1)[C@@H]1CCN(c2ncnc3[nH]ccc23)C1 [Compound 40]
8 | 1 to 100 | 100 to 1000 | – | – | N#Cc1ccc(N(C2CC2)[C@@H]2CCN(c3ncnc4[nH]ccc34)C2)nc1 [Compound 41]
9 | 1 to 100 | – | – | – | N#Cc1ccc2c(c1)CCN2C1CCN(c2ncnc3[nH]ccc23)C1 (stereo not shown) [Compound 46]
10 | 1 to 100 | – | 98 | 157 | CNS(=O)(=O)N(C)[C@@H]1CCN(c2ncnc3[nH]ccc23)C1 [Compound 47]
11 | 1 to 100 | 100 to 1000 | – | – | CCS(=O)(=O)N(C)[C@@H]1CCN(c2ncnc3[nH]ccc23)C1 [Compound 48]
12 | 100 to 1000 | – | – | – | CC(C)S(=O)(=O)N(C)[C@@H]1CCN(c2ncnc3[nH]ccc23)C1 [Compound 49]
13 | 100 to 1000 | – | – | – | N#CCN(C1CCC1)[C@@H]1CCN(c2ncnc3[nH]ccc23)C1 [Compound 52]
14 | 100 to 1000 | – | – | – | CN(C1CCCC1)[C@@H]1CCN(c2ncnc3[nH]ccc23)C1 [Compound 53]
15 | 100 to 1000 | – | – | – | N#CCN(C1CC1)[C@@H]1CCN(c2ncnc3[nH]ccc23)C1 [Compound 55]
16 | 100 to 1000 | – | – | – | C#CCN(C1CCOC1)[C@@H]1CCN(c2ncnc3[nH]ccc23)C1 (stereo partly shown) [Compound 56]
17 | 100 to 1000 | – | – | – | C#CCN(c1ccc(S(C)(=O)=O)cn1)[C@@H]1CCN(c2ncnc3[nH]ccc23)C1 [Compound 58]
18 | 1 to 100 | 100 to 1000 | – | – | CN(c1ccc(C#N)nn1)[C@@H]1CCN(c2ncnc3[nH]ccc23)C1 [Compound 60]
19 | 1 to 100 | 100 to 1000 | – | – | CN(c1ccc(C(F)(F)F)nn1)[C@@H]1CCN(c2ncnc3[nH]ccc23)C1 [Compound 62]
20 | 1 to 100 | 100 to 1000 | – | – | CN(CCC#N)[C@@H]1CCN(c2ncnc3[nH]ccc23)C1 [Compound 64]
21 | 1 to 100 | 1 to 100 | – | – | CN(c1ccc(F)cn1)[C@@H]1CCN(c2ncnc3[nH]ccc23)C1 [Compound 66]
22 | 100 to 1000 | 100 to 1000 | – | – | CN(c1ccc([N+](=O)[O-])cn1)[C@@H]1CCN(c2ncnc3[nH]ccc23)C1 [Compound 70]

Row | IC50 [1, 3] [nM] | IC50 [2, 4] [nM] | IC50 ([1]; read-out: JAK2 (enzyme, IC50)) [nM] | IC50 ([2]; read-out: JAK3 (enzyme, IC50)) [nM] | SMILES
23 | 1 to 100 | 100 to 1000 | – | – | CN(c1ccc(C#N)cn1)[C@@H]1CCN(c2ncnc3[nH]ccc23)C1 [Compound 71]
24 | 100 to 1000 | – | – | – | Cc1cc(N(C)[C@@H]2CCN(c3ncnc4[nH]ccc34)C2)nc(Cl)c1C#N [Compound 72]
25 | 1 to 100 | 100 to 1000 | – | – | Cc1cc(Cl)nc(N(C)[C@@H]2CCN(c3ncnc4[nH]ccc34)C2)c1C#N [Compound 73]
26 | 100 to 1000 | 100 to 1000 | – | – | CN(c1nc(Cl)nc2ccccc12)[C@@H]1CCN(c2ncnc3[nH]ccc23)C1 [Compound 79]
27 | 1 to 100 | 100 to 1000 | – | – | CN(c1ncnc2ccccc12)[C@@H]1CCN(c2ncnc3[nH]ccc23)C1 [Compound 80]
28 | 1 to 100 | 100 to 1000 | – | – | N#Cc1ccc(N[C@@H]2CCN(c3ncnc4[nH]ccc34)C2)nc1 [Compound 81]
29 | 100 to 1000 | – | – | – | CN(c1ncc(C#N)cc1Cl)[C@@H]1CCN(c2ncnc3[nH]ccc23)C1 [Compound 83]
30 | – | 100 to 1000 | – | – | CN(c1cnc(C#N)cn1)[C@@H]1CCN(c2ncnc3[nH]ccc23)C1 [Compound 84]
31 | 100 to 1000 | – | – | – | CN(c1ccc(Cl)nn1)[C@@H]1CCN(c2ncnc3[nH]ccc23)C1 [Compound 85]
32 | 1 to 100 | 100 to 1000 | – | – | CN(c1nc(Cl)c(C#N)cc1F)[C@@H]1CCN(c2ncnc3[nH]ccc23)C1 [Compound 87]
33 | 100 to 1000 | – | – | – | CN(c1ncc(Br)cc1C#N)[C@@H]1CCN(c2ncnc3[nH]ccc23)C1 [Compound 89]
34 | 100 to 1000 | – | – | – | CN(c1ccc(C#N)c(Cl)n1)[C@@H]1CCN(c2ncnc3[nH]ccc23)C1 [Compound 90]
35 | 1 to 100 | 100 to 1000 | – | – | CN(c1cccc(C#N)n1)[C@@H]1CCN(c2ncnc3[nH]ccc23)C1 [Compound 91]
36 | 1 to 100 | 100 to 1000 | – | – | CN(c1ccc(C#N)cn1)[C@@H]1CCN(c2ccnc3[nH]ccc23)C1 [Compound 92]
37 | 1 to 100 | 100 to 1000 | – | – | CN(c1ncc(Br)cn1)[C@@H]1CCN(c2ncnc3[nH]ccc23)C1 [Compound 94]
38 | 100 to 1000 | 100 to 1000 | – | – | CN(c1ncc(C#N)cc1[N+](=O)[O-])[C@@H]1CCN(c2ncnc3[nH]ccc23)C1 [Compound 96]
39 | 1 to 100 | 100 to 1000 | – | – | CCCN(c1ccc(C#N)cn1)[C@@H]1CCN(c2ncnc3[nH]ccc23)C1 [Compound 98]
40 | 1 to 100 | 100 to 1000 | – | – | CN(c1ncc(C#N)cc1Br)[C@@H]1CCN(c2ncnc3[nH]ccc23)C1 [Compound 99]
41 | 1 to 100 | 100 to 1000 | – | – | CN(c1ccc(C#N)cn1)[C@H]1CCN(c2ncnc3[nH]ccc23)C1 [Compound 102]
42 | – | – | 48.7 | 359 | CN(c1ccc(C#N)c(F)c1)[C@@H]1CCN(c2ncnc3[nH]ccc23)C1 [Compound 105]
43 | 100 to 1000 | 100 to 1000 | – | – | CN(c1ccc(C#N)cc1[N+](=O)[O-])[C@@H]1CCN(c2ncnc3[nH]ccc23)C1 [Compound 107]
44 | 100 to 1000 | – | – | – | CN(c1c(F)cc(C#N)cc1F)[C@@H]1CCN(c2ncnc3[nH]ccc23)C1 [Compound 108]

Row | IC50 [1, 3] [nM] | IC50 [2, 4] [nM] | IC50 ([1]; read-out: JAK2 (enzyme, IC50)) [nM] | IC50 ([2]; read-out: JAK3 (enzyme, IC50)) [nM] | SMILES
45 | 1 to 100 | 100 to 1000 | – | – | CN(c1ccc(C#N)c2ccccc12)[C@@H]1CCN(c2ncnc3[nH]ccc23)C1 [Compound 111]
46 | 1 to 100 | 100 to 1000 | – | – | CN(c1ccc(C#N)c(Br)c1)[C@@H]1CCN(c2ncnc3[nH]ccc23)C1 [Compound 114]
47 | 100 to 1000 | – | – | – | CN(c1ccc(C#N)cc1Br)[C@@H]1CCN(c2ncnc3[nH]ccc23)C1 [Compound 115]
48 | 1 to 100 | 1 to 100 | – | – | C#CCN(c1c(F)cc(C#N)cc1F)[C@@H]1CCN(c2ncnc3[nH]ccc23)C1 [Compound 129]
49 | 100 to 1000 | – | – | – | C#CCN(c1ccc(C#N)cc1F)[C@@H]1CCN(c2ncnc3[nH]ccc23)C1 [Compound 130]
50 | 1 to 100 | 100 to 1000 | – | – | C#CCN(c1ccc(C#N)cc1)[C@@H]1CCN(c2ncnc3[nH]ccc23)C1 [Compound 131]
51 | 100 to 1000 | – | – | – | CCOc1cnc(N(C)[C@@H]2CCN(c3ncnc4[nH]ccc34)C2)cn1 [Compound 136]
52 | 100 to 1000 | – | – | – | CN(c1ccc(-c2cccs2)cn1)[C@@H]1CCN(c2ncnc3[nH]ccc23)C1 [Compound 147]
53 | 1 to 100 | 100 to 1000 | – | – | CN(c1ccccn1)[C@@H]1CCN(c2ncnc3[nH]ccc23)C1 [Compound 156]
54 | 1 to 100 | – | – | – | Cc1cc(N(C)[C@@H]2CCN(c3ncnc4[nH]ccc34)C2)ncc1C#N [Compound 157]
55 | 100 to 1000 | – | – | – | CN(c1ncc(C#N)cc1F)[C@@H]1CCN(c2ncnc3[nH]ccc23)C1 [Compound 158]
56 | 1 to 100 | 100 to 1000 | – | – | CN(c1ncccc1C#N)[C@@H]1CCN(c2ncnc3[nH]ccc23)C1 [Compound 159]
57 | 1 to 100 | – | – | – | CN(c1ccc(C(=O)N[C@@H](CO)c2ccccc2)cn1)[C@@H]1CCN(c2ncnc3[nH]ccc23)C1 [Compound 176]
58 | 100 to 1000 | – | – | – | CN(C(=O)c1ccc(N(C)[C@@H]2CCN(c3ncnc4[nH]ccc34)C2)nc1)c1ccc(F)cc1 [Compound 178]
59 | 1 to 100 | – | – | – | CN(c1ccc(C(=O)N[C@@H](CO)c2ccccc2)cc1F)[C@@H]1CCN(c2ncnc3[nH]ccc23)C1 [Compound 179]
60 | 1 to 100 | – | – | – | CN(c1ccc(C(=O)Nc2cccc(Cl)c2)cc1F)[C@@H]1CCN(c2ncnc3[nH]ccc23)C1 [Compound 185]
61 | 1 to 100 | – | – | – | CN(c1ccc(C(=O)Nc2ccccc2F)cn1)[C@@H]1CCN(c2ncnc3[nH]ccc23)C1 [Compound 192]
62 | 1 to 100 | – | – | – | CN(c1ccc(C(=O)NC(CO)c2ccc(Cl)cc2)cc1F)[C@@H]1CCN(c2ncnc3[nH]ccc23)C1 (stereo partly shown) [Compound 201]
63 | 100 to 1000 | – | – | – | CN(c1ccc(C(=O)NC(CO)c2ccccc2Cl)cc1F)[C@@H]1CCN(c2ncnc3[nH]ccc23)C1 (stereo partly shown) [Compound 207]
64 | 1 to 100 | – | – | – | CN(c1ccc(NS(=O)(=O)c2ccc(F)cc2)cn1)[C@@H]1CCN(c2ncnc3[nH]ccc23)C1 [Compound 212]
65 | – | – | – | 86.3 | CN(c1ccc(S(N)(=O)=O)cn1)[C@@H]1CCN(c2ncnc3[nH]ccc23)C1 [Compound 234]

Row | SMILES | IC50 [1, 3] [nM] | IC50 [2, 4] [nM] | IC50 ([1]; read-out: JAK2 (enzyme, IC50)) [nM] | IC50 ([2]; read-out: JAK3 (enzyme, IC50)) [nM]
66 | CN(c1ccc(-c2nn[nH]n2)cn1)[C@@H]1CCN(c2ncnc3[nH]ccc23)C1 [Compound 160, (R)—N-(1-(7H-pyrrolo[2,3-d]pyrimidin-4-yl)pyrrolidin-3-yl)-N-methyl-5-(2H-tetrazol-5-yl)pyridin-2-amine] | 100 to 1000 | – | – | –
67 | CN(c1ccc2nn[nH]c2n1)[C@@H]1CCN(c2ncnc3[nH]ccc23)C1 [Compound 167, (R)—N-(1-(7H-pyrrolo[2,3-d]pyrimidin-4-yl)pyrrolidin-3-yl)-N-methyl-3H-[1,2,3]triazolo[4,5-b]pyridin-5-amine] | 100 to 1000 | – | – | –
68 | CN(c1ccc(C(=O)O)cn1)[C@@H]1CCN(c2ncnc3[nH]ccc23)C1 [Compound 170, (R)-6-((1-(7H-pyrrolo[2,3-d]pyrimidin-4-yl)pyrrolidin-3-yl)(methyl)amino)nicotinic acid] | 100 to 1000 | – | – | –
